# Active and inactive are the calls of the source. The rule behind the calls is not given here.
# Test system: CCRIS mutagenicity, Ames/micronucleus/aberration tests
# Experiment: CCRIS mutagenicity studies
# [1] = Test System: AMES SALMONELLA TYPHIMURIUM, Strain/Indicator: TA98, Metabolic Activation: NONE, Method: STANDARD PLATE
# [2] = Test System: AMES SALMONELLA TYPHIMURIUM, Strain/Indicator: TA100, Metabolic Activation: NONE, Method: STANDARD PLATE
compound,measurement,setting,value
O=C1CCCCCCCCCCCC(=O)OCCO1,mutagenic call,"Test System: AMES SALMONELLA TYPHIMURIUM, Strain/Indicator: TA98, Metabolic Activation: NONE, Method: PREINCUBATION",inactive; negative
same,mutagenic call,"Test System: AMES SALMONELLA TYPHIMURIUM, Strain/Indicator: TA98, Metabolic Activation: RAT, LIVER, S-9, SODIUM PHENOBARBITAL AND 5,6-BENZOFLAVONE, Method: PREINCUBATION",inactive; negative
same,mutagenic call,"Test System: AMES SALMONELLA TYPHIMURIUM, Strain/Indicator: TA100, Metabolic Activation: NONE, Method: PREINCUBATION",inactive; negative
same,mutagenic call,"Test System: AMES SALMONELLA TYPHIMURIUM, Strain/Indicator: TA100, Metabolic Activation: RAT, LIVER, S-9, SODIUM PHENOBARBITAL AND 5,6-BENZOFLAVONE, Method: PREINCUBATION",inactive; negative
same,mutagenic call,"Test System: AMES SALMONELLA TYPHIMURIUM, Strain/Indicator: TA102, Metabolic Activation: NONE, Method: PREINCUBATION",inactive; negative
same,mutagenic call,"Test System: AMES SALMONELLA TYPHIMURIUM, Strain/Indicator: TA102, Metabolic Activation: RAT, LIVER, S-9, SODIUM PHENOBARBITAL AND 5,6-BENZOFLAVONE, Method: PREINCUBATION",inactive; negative
same,mutagenic call,"Test System: AMES SALMONELLA TYPHIMURIUM, Strain/Indicator: TA104, Metabolic Activation: NONE, Method: PREINCUBATION",inactive; negative
same,mutagenic call,"Test System: AMES SALMONELLA TYPHIMURIUM, Strain/Indicator: TA104, Metabolic Activation: RAT, LIVER, S-9, SODIUM PHENOBARBITAL AND 5,6-BENZOFLAVONE, Method: PREINCUBATION",inactive; negative
same,mutagenic call,"Test System: AMES SALMONELLA TYPHIMURIUM, Strain/Indicator: TA1535, Metabolic Activation: NONE, Method: PREINCUBATION",inactive; negative
same,mutagenic call,"Test System: AMES SALMONELLA TYPHIMURIUM, Strain/Indicator: TA1535, Metabolic Activation: RAT, LIVER, S-9, SODIUM PHENOBARBITAL AND 5,6-BENZOFLAVONE, Method: PREINCUBATION",inactive; negative
same,mutagenic call,"Test System: AMES SALMONELLA TYPHIMURIUM, Strain/Indicator: TA1537, Metabolic Activation: NONE, Method: PREINCUBATION",inactive; negative
same,mutagenic call,"Test System: AMES SALMONELLA TYPHIMURIUM, Strain/Indicator: TA1537, Metabolic Activation: RAT, LIVER, S-9, SODIUM PHENOBARBITAL AND 5,6-BENZOFLAVONE, Method: PREINCUBATION",inactive; negative
same,mutagenic call,"Test System: E. COLI, Strain/Indicator: WP2UVRA/PKM101, Metabolic Activation: NONE, Method: PREINCUBATION",inactive; negative
same,mutagenic call,"Test System: E. COLI, Strain/Indicator: WP2UVRA/PKM101, Metabolic Activation: RAT, LIVER, S-9, SODIUM PHENOBARBITAL AND 5,6-BENZOFLAVONE, Method: PREINCUBATION",inactive; negative
same,mutagenic call,"Test System: E. COLI, Strain/Indicator: WP2UVRA, Metabolic Activation: NONE, Method: PREINCUBATION",inactive; negative
same,mutagenic call,"Test System: E. COLI, Strain/Indicator: WP2UVRA, Metabolic Activation: RAT, LIVER, S-9, SODIUM PHENOBARBITAL AND 5,6-BENZOFLAVONE, Method: PREINCUBATION",inactive; negative
COc1ccc(-c2coc3cc(O)cc(O)c3c2=O)cc1,mutagenic call,"Test System: AMES SALMONELLA TYPHIMURIUM, Strain/Indicator: TA98, Metabolic Activation: HAMSTER, LIVER, S-9, AROCLOR 1254, Method: STANDARD PLATE",inactive; negative
same,mutagenic call,[1],inactive; negative
same,mutagenic call,"Test System: AMES SALMONELLA TYPHIMURIUM, Strain/Indicator: TA98, Metabolic Activation: RAT, LIVER, S-9, AROCLOR 1254, Method: STANDARD PLATE",inactive; negative
same,mutagenic call,"Test System: AMES SALMONELLA TYPHIMURIUM, Strain/Indicator: TA100, Metabolic Activation: HAMSTER, LIVER, S-9, AROCLOR 1254, Method: STANDARD PLATE",inactive; negative
same,mutagenic call,[2],inactive; negative
same,mutagenic call,"Test System: AMES SALMONELLA TYPHIMURIUM, Strain/Indicator: TA100, Metabolic Activation: RAT, LIVER, S-9, AROCLOR 1254, Method: STANDARD PLATE",inactive; negative
same,mutagenic call,"Test System: AMES SALMONELLA TYPHIMURIUM, Strain/Indicator: TA1535, Metabolic Activation: HAMSTER, LIVER, S-9, AROCLOR 1254, Method: STANDARD PLATE",inactive; negative
same,mutagenic call,"Test System: AMES SALMONELLA TYPHIMURIUM, Strain/Indicator: TA1535, Metabolic Activation: NONE, Method: STANDARD PLATE",inactive; negative
same,mutagenic call,"Test System: AMES SALMONELLA TYPHIMURIUM, Strain/Indicator: TA1535, Metabolic Activation: RAT, LIVER, S-9, AROCLOR 1254, Method: STANDARD PLATE",inactive; negative
same,mutagenic call,"Test System: AMES SALMONELLA TYPHIMURIUM, Strain/Indicator: TA1537, Metabolic Activation: HAMSTER, LIVER, S-9, AROCLOR 1254, Method: STANDARD PLATE",inactive; negative
same,mutagenic call,"Test System: AMES SALMONELLA TYPHIMURIUM, Strain/Indicator: TA1537, Metabolic Activation: NONE, Method: STANDARD PLATE",inactive; negative
same,mutagenic call,"Test System: AMES SALMONELLA TYPHIMURIUM, Strain/Indicator: TA1537, Metabolic Activation: RAT, LIVER, S-9, AROCLOR 1254, Method: STANDARD PLATE",inactive; negative
same,mutagenic call,"Test System: AMES SALMONELLA TYPHIMURIUM, Strain/Indicator: TA1538, Metabolic Activation: HAMSTER, LIVER, S-9, AROCLOR 1254, Method: STANDARD PLATE",inactive; negative
same,mutagenic call,"Test System: AMES SALMONELLA TYPHIMURIUM, Strain/Indicator: TA1538, Metabolic Activation: NONE, Method: STANDARD PLATE",inactive; negative
same,mutagenic call,"Test System: AMES SALMONELLA TYPHIMURIUM, Strain/Indicator: TA1538, Metabolic Activation: RAT, LIVER, S-9, AROCLOR 1254, Method: STANDARD PLATE",inactive; negative
same,mutagenic call,"Test System: MOUSE LYMPHOMA, Strain/Indicator: L5178Y (TK+/TK-), Metabolic Activation: NONE, Method: SUSPENSION/PLATE",active; positive. reevaluation of results: inconclusive
same,mutagenic call,"Test System: MOUSE LYMPHOMA, Strain/Indicator: L5178Y (TK+/TK-), Metabolic Activation: RAT, LIVER, S-9, AROCLOR 1254, Method: SUSPENSION/PLATE",active; positive. reevaluation of results: positive
same,mutagenic call,"Test System: SYRIAN HAMSTER EMBRYO CELLS, Strain/Indicator: HPRT/6-THIOGUANINE, Metabolic Activation: NONE, Method: PLATE",inactive; negative
CCOC(=O)Cc1c(C(=O)O)c2ccccc2n1C,mutagenic call,"Test System: AMES SALMONELLA TYPHIMURIUM, Strain/Indicator: TA97, Metabolic Activation: NONE, Method: STANDARD PLATE",inactive; negative
same,mutagenic call,"Test System: AMES SALMONELLA TYPHIMURIUM, Strain/Indicator: TA97, Metabolic Activation: RAT, LIVER, S-9, AROCLOR 1254 (4%, 10%), Method: STANDARD PLATE",inactive; negative
same,mutagenic call,[1],inactive; negative
same,mutagenic call,"Test System: AMES SALMONELLA TYPHIMURIUM, Strain/Indicator: TA98, Metabolic Activation: RAT, LIVER, S-9, AROCLOR 1254 (4%, 10%), Method: STANDARD PLATE",inactive; negative
same,mutagenic call,[2],inactive; negative
same,mutagenic call,"Test System: AMES SALMONELLA TYPHIMURIUM, Strain/Indicator: TA100, Metabolic Activation: RAT, LIVER, S-9, AROCLOR 1254 (4%, 10%), Method: STANDARD PLATE",inactive; negative
same,mutagenic call,"Test System: AMES SALMONELLA TYPHIMURIUM, Strain/Indicator: TA102, Metabolic Activation: NONE, Method: STANDARD PLATE",inactive; negative
same,mutagenic call,"Test System: AMES SALMONELLA TYPHIMURIUM, Strain/Indicator: TA102, Metabolic Activation: RAT, LIVER, S-9, AROCLOR 1254 (4%, 10%), Method: STANDARD PLATE",inactive; negative
Cc1ccc(N=[N+]([O-])c2ccc(C)c([N+](=O)[O-])c2)cc1[N+](=O)[O-],mutagenic call,"Test System: AMES SALMONELLA TYPHIMURIUM, Strain/Indicator: TA98, Metabolic Activation: NONE, Method: SUSPENSION/PLATE",inactive; negative
same,mutagenic call,"Test System: AMES SALMONELLA TYPHIMURIUM, Strain/Indicator: TA98, Metabolic Activation: RAT, LIVER, S-9, PHENOBARBITAL AND 5,6-BENZOFLAVONE, Method: SUSPENSION/PLATE",inactive; negative
same,mutagenic call,"Test System: AMES SALMONELLA TYPHIMURIUM, Strain/Indicator: TA100, Metabolic Activation: NONE, Method: SUSPENSION/PLATE",inactive; negative
same,mutagenic call,"Test System: AMES SALMONELLA TYPHIMURIUM, Strain/Indicator: TA100, Metabolic Activation: RAT, LIVER, S-9, PHENOBARBITAL AND 5,6-BENZOFLAVONE, Method: SUSPENSION/PLATE",inactive; negative

# Source: PubChem BioAssay AID1259407 (Chemical Carcinogenesis Research Information System (CCRIS), 2018)
